Assay results as given in patent US11566030B2, “Substituted 2,6-dihydropyrrolo[3,4-c]pyrazoles as pyruvate kinase activators” (priority 2021, dated 2023).
Read-outs that look alike come from different tables or passages of the source.

Target: T1, Human pyruvate kinase R (PKR) (Homo sapiens, UniProt P30613)
T1 construct: Human pyruvate kinase R (PKR), residues 14-574; 6xHis-8xArg-SUMO (N, cleaved yes); host or cells: E. coli
Test: Biochemical assay for activation of pyruvate kinase R (Kinase-Glo luminescence, ATP generation)
Settings: for Emax: read-out: PKR % activation, maximal activation level achieved with each compound relative to the activation level achieved by AG-348 @ 10 μM; for PKR % activation: maximal activation level achieved with each compound relative to the activation level achieved by AG-348 @ 10 μM
Outline: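 Recombinant human PKR (residues 14-574) expressed in E. coli with His-Arg-SUMO tag, tag cleaved, purified by Ni-NTA, anion exchange and size exclusion. Activation read as ATP generation by Kinase-Glo luminescence.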

[1] = PKR AC50 (nM), 0.1 nM PKR, 0.3 mM ADP, 0.1 mM PEP, 1% DMSO

T1 sequence (P30613 14-574): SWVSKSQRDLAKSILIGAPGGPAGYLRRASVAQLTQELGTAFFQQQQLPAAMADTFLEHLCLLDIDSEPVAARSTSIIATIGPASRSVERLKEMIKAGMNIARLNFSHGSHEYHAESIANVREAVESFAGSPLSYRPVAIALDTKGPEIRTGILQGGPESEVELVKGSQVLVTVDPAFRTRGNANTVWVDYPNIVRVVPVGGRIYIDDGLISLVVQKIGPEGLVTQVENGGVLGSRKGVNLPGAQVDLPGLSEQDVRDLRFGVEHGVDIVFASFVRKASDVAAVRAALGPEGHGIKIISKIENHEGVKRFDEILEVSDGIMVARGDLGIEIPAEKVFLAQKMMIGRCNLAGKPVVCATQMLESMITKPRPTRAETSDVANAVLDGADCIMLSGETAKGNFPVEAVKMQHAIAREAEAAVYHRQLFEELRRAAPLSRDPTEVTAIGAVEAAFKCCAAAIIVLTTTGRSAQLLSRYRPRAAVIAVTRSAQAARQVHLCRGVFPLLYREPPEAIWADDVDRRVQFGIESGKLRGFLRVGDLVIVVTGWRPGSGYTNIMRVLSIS

SMILES	AC50 [nM]	Emax [%]	AC50 [1] [nM]	PKR % activation [%]
Cc1cn(CC(F)F)nc1S(=O)(=O)n1cc2c(n1)CN(C(=O)[C@H](CO)c1ccccc1F)C2 [Compound 78, (2S)-1-{2-[1-(2,2-difluoroethyl)-4-methylpyrazol-3-ylsulfonyl]-4H,6H-pyrrolo[3,4-c]pyrazol-5-yl}-2-(2-fluorophenyl)-3-hydroxypropan-1-one]	7.1	32	–	–
O=C([C@@H](O)c1ccccc1F)N1Cc2cn(S(=O)(=O)c3cnn(CC(F)F)c3)nc2C1 [Compound 37, (2S)-1-[2-[1-(2,2-difluoroethyl)pyrazol-4-ylsulfonyl]-4H,6H-pyrrolo[3,4-c]pyrazol-5-yl]-2-(2-fluorophenyl)-2-hydroxyethanone]	–	126	960	–
Cc1nc(C)c(S(=O)(=O)n2cc3c(n2)CN(C(=O)[C@H](CO)c2ccccc2)C3)s1 [Compound 15, (2S)-1-{2-[(2,4-dimethyl-1,3-thiazol-5-yl)sulfonyl]-2H,4H,5H,6H-pyrrolo[3,4-c]pyrazol-5-yl}-3-hydroxy-2-phenylpropan-1-one]	44	15	–	–
O=C([C@H](CO)c1ccccc1)N1Cc2cn(S(=O)(=O)c3ccc(Br)s3)nc2C1 [Compound 19, (2S)-1-{2-[(5-bromothiophen-2-yl)sulfonyl]-2H,4H,5H,6H-pyrrolo[3,4-c]pyrazol-5-yl}-3-hydroxy-2-phenylpropan-1-one]	–	67	19	–
O=C([C@H](O)c1ccccc1F)N1Cc2cn(S(=O)(=O)c3ccn(CC(F)F)n3)nc2C1 [Compound 51, (2R)-1-{2-[1-(2,2-difluoroethyl)pyrazol-3-ylsulfonyl]-4H,6H-pyrrolo[3,4-c]pyrazol-5-yl}-2-(2-fluorophenyl)-2-hydroxyethanone]	140	112	–	–
O=C([C@H](CO)c1ccccc1Cl)N1Cc2cn(S(=O)(=O)c3cnn(CC(F)(F)F)c3)nc2C1 [Compound 47, (2S)-2-(2-chlorophenyl)-3-hydroxy-1-[2-[1-(2,2,2-trifluoroethyl)pyrazol-4-ylsulfonyl]-4H,6H-pyrrolo[3,4-c]pyrazol-5-yl]propan-1-one]	–	108	10	–
O=C([C@H](CO)c1ccccc1Cl)N1Cc2cn(S(=O)(=O)c3ccn(CC(F)F)n3)nc2C1 [Compound 13, (2S)-2-(2-chlorophenyl)-1-(2-{[1-(2,2-difluoroethyl)-1H-pyrazol-3-yl]sulfonyl}-2H,4H,5H,6H-pyrrolo[3,4-c]pyrazol-5-yl)-3-hydroxypropan-1-one]	–	133	7	–
O=C([C@H](O)c1ncccc1F)N1Cc2cn(S(=O)(=O)c3ccn(CC(F)F)n3)nc2C1 (single isomer, unassigned) [Compound 28]	–	85	3400	–
Cc1cn(CC(F)F)nc1S(=O)(=O)n1cc2c(n1)CN(C(=O)C1(c3ncccc3Cl)COC1)C2 [Compound 82, 3-chloro-2-(3-{2-[1-(2,2-difluoroethyl)-4-methylpyrazol-3-ylsulfonyl]-4H,6H-pyrrolo[3,4-c]pyrazole-5-carbonyl}oxetan-3-yl)pyridine]	–	19	8.3	–
O=C([C@H](O)c1ccccc1)N1Cc2cn(S(=O)(=O)c3cnn(CC(F)F)c3)nc2C1 [Compound 4, (2R)-1-(2-{[1-(2,2-difluoroethyl)-1H-pyrazol-4-yl]sulfonyl}-2H,4H,5H,6H-pyrrolo[3,4-c]pyrazol-5-yl)-2-hydroxy-2-phenylethan-1-one]	22	62	–	–
CCc1ccccc1[C@H](CO)C(=O)N1Cc2cn(S(=O)(=O)c3cnn(CC(F)F)c3)nc2C1 [Compound 106, (R)-1-(2-((1-(2,2-difluoroethyl)-1H-pyrazol-4-yl)sulfonyl)-2,6-dihydropyrrolo[3,4-c]pyrazol-5(4H)-yl)-2-(2-ethylphenyl)-3-hydroxypropan-1-one]	–	189	210	–
C[C@](CO)(C(=O)N1Cc2cn(S(=O)(=O)c3cnn(CC(F)F)c3)nc2C1)c1ccccn1 (single isomer, unassigned) [Compound 10]	–	112	116	–
O=C([C@H](CO)c1ccccc1F)N1Cc2cn(S(=O)(=O)c3ccn(CC(F)(F)F)n3)nc2C1 [Compound 62, (2S)-2-(2-fluorophenyl)-3-hydroxy-1-{2-[1-(2,2,2-trifluoroethyl)pyrazol-3-ylsulfonyl]-4H,6H-pyrrolo[3,4-c]pyrazol-5-yl}propan-1-one]	–	60	70	–
C[C@H](O)[C@@H](C(=O)N1Cc2cn(S(=O)(=O)c3cnn(CC(F)(F)F)c3)nc2C1)c1ccccc1 [Compound 50, (2S,3S)-3-hydroxy-2-phenyl-1-{2-[1-(2,2,2-trifluoroethyl)pyrazol-4-ylsulfonyl]-4H,6H-pyrrolo[3,4-c]pyrazol-5-yl}butan-1-one]	–	89	82	–
Cc1c(S(=O)(=O)n2cc3c(n2)CN(C(=O)[C@@H](CO)c2ccccc2Cl)C3)cnn1CC(F)F [Compound 102, (2R)-2-(2-chlorophenyl)-1-{2-[1-(2,2-difluoroethyl)-5-methylpyrazol-4-ylsulfonyl]-4H,6H-pyrrolo[3,4-c]pyrazol-5-yl}-3-hydroxypropan-1-one]	–	126	690	–
C[C@@H](O)[C@@H](C(=O)N1Cc2cn(S(=O)(=O)c3cnn(CC(F)(F)F)c3)nc2C1)c1ccccc1 [Compound 49, (2S,3R)-3-hydroxy-2-phenyl-1-{2-[1-(2,2,2-trifluoroethyl)pyrazol-4-ylsulfonyl]-4H,6H-pyrrolo[3,4-c]pyrazol-5-yl}butan-1-one]	–	113	71	–
Cc1cn(CC(F)(F)F)nc1S(=O)(=O)n1cc2c(n1)CN(C(=O)[C@H](CO)c1ccccc1)C2 [Compound 66, (2S)-3-hydroxy-1-{2-[4-methyl-1-(2,2,2-trifluoroethyl)pyrazol-3-ylsulfonyl]-4H,6H-pyrrolo[3,4-c]pyrazol-5-yl}-2-phenylpropan-1-one]	–	0	120	–
O=C(N1Cc2cn(S(=O)(=O)c3cnn(CC(F)F)c3)nc2C1)C1(c2ncccc2Cl)COC1 [Compound 8, 3-chloro-2-(3-[2-[1-(2,2-difluoroethyl)pyrazol-4-ylsulfonyl]-4H,6H-pyrrolo[3,4-c]pyrazole-5-carbonyl]oxetan-3-yl)pyridine]	–	103	5.7	–
Cc1nc(CCC(F)(F)F)sc1S(=O)(=O)n1cc2c(n1)CN(C(=O)[C@H](CO)c1ccccc1)C2 [Compound 20, (2S)-3-hydroxy-1-(2-{[4-methyl-2-(3,3,3-trifluoropropyl)-1,3-thiazol-5-yl]sulfonyl}-2H,4H,5H,6H-pyrrolo[3,4-c]pyrazol-5-yl)-2-phenylpropan-1-one]	720	7	–	–
O=C([C@H](O)c1ncccc1F)N1Cc2cn(S(=O)(=O)c3cnn(CC(F)F)c3)nc2C1 (single isomer, unassigned) [Compound 38]	1800	121	–	–
CCc1ccc(S(=O)(=O)n2cc3c(n2)CN(C(=O)[C@H](CO)c2ccccc2)C3)s1 [Compound 21, (2S)-1-{2-[(5-ethylthiophen-2-yl)sulfonyl]-2H,4H,5H,6H-pyrrolo[3,4-c]pyrazol-5-yl}-3-hydroxy-2-phenylpropan-1-one]	16	65	–	–
COCCn1cc(S(=O)(=O)n2cc3c(n2)CN(C(=O)[C@H](CO)c2ccccc2F)C3)cn1 [Compound 60, (2S)-2-(2-fluorophenyl)-3-hydroxy-1-{2-[1-(2-methoxyethyl)pyrazol-4-ylsulfonyl]-4H,6H-pyrrolo[3,4-c]pyrazol-5-yl}propan-1-one]	–	74	28	–
O=C([C@H](O)c1ccccc1F)N1Cc2cn(S(=O)(=O)c3cnn(CC(F)(F)F)c3)nc2C1 (single isomer, unassigned) [Compound 41]	–	–	3400	40
Cc1c(S(=O)(=O)n2cc3c(n2)CN(C(=O)[C@@H](CO)c2ccccc2)C3)cnn1CC(F)F [Compound 89, (R)-1-(2-((1-(2,2-difluoroethyl)-5-methyl-1H-pyrazol-4-yl)sulfonyl)-2,6-dihydropyrrolo[3,4-c]pyrazol-5(4H)-yl)-3-hydroxy-2-phenylpropan-1-one]	1200	105	–	–
O=C([C@H](CO)c1ccccc1)N1Cc2cn(S(=O)(=O)c3cnn(C(F)F)c3)nc2C1 [Compound 116, (2S)-1-(2-{[1-(difluoromethyl)-1H-pyrazol-4-yl]sulfonyl}-2H,4H,5H,6H-pyrrolo[3,4-c]pyrazol-5-yl)-3-hydroxy-2-phenylpropan-1-one]	–	53	34	–
O=C([C@H](CO)c1ccccc1)N1Cc2cn(S(=O)(=O)c3cn(CC(F)F)cn3)nc2C1 [Compound 24, (2S)-1-(2-{[1-(2,2-difluoroethyl)-1H-imidazol-4-yl]sulfonyl}-2H,4H,5H,6H-pyrrolo[3,4-c]pyrazol-5-yl)-3-hydroxy-2-phenylpropan-1-one]	–	93	64	–
CCn1ncc(S(=O)(=O)n2cc3c(n2)CN(C(=O)[C@H](CO)c2ccccc2)C3)c1C(F)(F)F [Compound 111, (2S)-1-{2-[1-ethyl-5-(trifluoromethyl)pyrazol-4-ylsulfonyl]-4H,6H-pyrrolo[3,4-c]pyrazol-5-yl}-3-hydroxy-2-phenylpropan-1-one]	–	42	1600	–
COCCOc1ccccc1[C@@H](CO)C(=O)N1Cc2cn(S(=O)(=O)c3cnn(CC(F)F)c3)nc2C1 (single isomer, unassigned) [Compound 92]	–	0	–	–
O=C([C@H](OCCO)c1ccccc1F)N1Cc2cn(S(=O)(=O)c3ccn(CC(F)(F)F)n3)nc2C1 (single isomer, unassigned) [Compound 86]	–	–	1.1	0
O=C([C@@H](CO)c1ccccc1OCCO)N1Cc2cn(S(=O)(=O)c3cnn(CC(F)F)c3)nc2C1 (single isomer, unassigned) [Compound 110]	37	146	–	–
